Reference: the Biogen ADME set (Fang et al. 2023)
Values after ≈ are worked out from the molar mass of the structure shown.

Conditions: for aqueous solubility: pH 6.8

intrinsic clearance, human liver microsomes [mL/min/kg] | intrinsic clearance, rat liver microsomes [mL/min/kg] | aqueous solubility [µg/mL] | MDR1-MDCK efflux ratio | fraction unbound, human plasma | fraction unbound, rat plasma | Structure (SMILES)
8.23 | 241 | 4.31 (≈ 13.7 µM) |  |  |  | O=C1CSc2ccc(C(=O)Nc3cc(C4CC4)n[nH]3)cc2N1
≤ 4.74 | ≤ 10.7 |  | 0.585 |  |  | COc1ncccc1C(=O)Nc1nc(C)nn1C
 |  | 0.25 (≈ 0.543 µM) | 2.96 |  |  | NCC(=O)Nc1ccc(-n2nc(C(F)(F)F)cc2-c2ccc3c(ccc4ccccc43)c2)cc1
 |  | 0.55 (≈ 2.23 µM) | 0.393 |  |  | CC(C)C(=O)Nc1ncc(-c2ccccc2)s1
227 | 831 | 52.6 (≈ 121 µM) | 15.6 |  |  | CCn1ncc(CN2CCC(c3nc(N(C)C)ncc3-c3ccc(OC)cc3)CC2)c1C
≤ 4.74 | 589 |  | 1.29 |  |  | CC(C)=CCOc1cccc(C(=O)NN2CCOCC2)c1
≤ 4.74 | ≤ 10.7 | 33.3 (≈ 122 µM) | 1.52 |  |  | CON(C)C(=O)c1cc(C)ccc1NS(C)(=O)=O
33.2 | 600 |  | 0.709 |  |  | Cc1nnc2ccc(N3CCC4(CCCCC4)C3)nn12
≤ 4.74 | 76.4 | 21 (≈ 85.5 µM) | 0.904 |  |  | CC1(c2ccn[nH]2)CCN(Cc2ccco2)CC1
≤ 4.74 | 124 | 12.1 (≈ 49.3 µM) |  |  |  | Cc1nc(-c2ccc(C)c(O)c2)n(C(C)(C)C)n1
≤ 4.74 | 56.3 |  | 1.18 |  |  | O=C(NCCN1CCc2ccccc2C1=O)c1ccon1
27.3 | 374 | 33.2 (≈ 95 µM) | 2.69 |  |  | Cn1cc(CN2CCN(c3ccccc3O)CC2)c(-c2ccncc2)n1
6.78 | 40.2 | 50.5 (≈ 148 µM) | 8.41 |  |  | Cc1cc(C(=O)Nc2c(C)nn(C(C)C)c2C)c2ccc(F)cc2n1
53.1 | 574 |  | 3.24 | 0.00925 | 0.0131 | COc1ccc(Nc2c(C#N)cnc3cc(OC)c(OC)cc23)cc1Cl
219 | 1550 |  | 0.473 |  |  | CCc1ccc(CC)c(C(=O)CSc2nncs2)c1
≤ 4.74 | ≤ 10.7 | 50.6 (≈ 177 µM) | 3.86 |  |  | CCc1nc2ccccc2n1CC(=O)N1CCNC(=O)C1
8.94 | 226 | 34 (≈ 95.4 µM) |  |  |  | Cn1cc(-c2nc(C(=O)Nc3ccc4c(c3)OCCCO4)cs2)cn1
7.61 | 17.5 |  |  |  |  | CCOc1cc(-c2nnc(NC(=O)c3cccc(C(F)(F)F)c3)o2)cc(OCC)c1OCC
44.5 | 631 | 29.7 (≈ 81.9 µM) | 0.485 |  |  | COc1ccc2nc(CN3CCC(O)(c4ccc(C)cc4)CC3)ccc2c1
107 | 320 | 39.7 (≈ 88.4 µM) | 36.2 |  |  | Cc1cc2nc(CCC(=O)N3CCC(c4ccc(C(=O)N(C)C)c(N)n4)CC3)[nH]c2cc1C
≤ 4.74 | ≤ 10.7 | 32.5 (≈ 139 µM) |  |  |  | Cc1nn(C)c2nc(C(C)C)cc(C(=O)O)c12
 |  | 0.9 (≈ 1.7 µM) | 38.3 |  |  | CS(=O)(=O)c1ccc(-c2nnc(/C=C/c3nnc(-c4ccc(C#N)cc4)o3)n2-c2ccccc2Cl)nc1
31.9 | 1090 | 50.4 (≈ 162 µM) |  | 0.173 | 0.156 | Cn1c(C2CC2)nc2c1CCN(c1ncnc3ccsc13)C2
26.1 | 55.8 |  |  |  |  | CC(C)(C)c1cc(C(=O)CSc2nnnn2-c2ccccc2)cc(C(C)(C)C)c1O
≤ 4.74 | 23.3 | 61.7 (≈ 154 µM) | 4.42 |  |  | O=C(c1ccc(F)c(F)c1)N1CCN(C(=O)c2nc(Cl)ccc2Cl)CC1
≤ 4.74 | ≤ 10.7 | 60.7 (≈ 180 µM) | 0.345 |  |  | O=C(O)CCC(=O)Nc1ccccc1-c1nc2ccccc2[nH]c1=O
15.9 | 46.6 |  |  |  |  | CC(C)(C)c1cc(C(=O)CSc2nncn2-c2ccccc2)cc(C(C)(C)C)c1O
7.82 | 86.8 | 35.9 (≈ 137 µM) | 1.08 |  |  | COc1ccc(C(=O)N2CCCC2)cc1NC(C)C

intrinsic clearance, human liver microsomes [mL/min/kg] | intrinsic clearance, rat liver microsomes [mL/min/kg] | aqueous solubility [µg/mL] | MDR1-MDCK efflux ratio | fraction unbound, human plasma | fraction unbound, rat plasma | Structure (SMILES)
 |  | 0.71 (≈ 2.13 µM) | 0.492 |  |  | CC(C)c1ccccc1OC(=O)NCCc1ccc2ccccc2c1
≤ 4.74 | 21.8 |  |  |  |  | CNC(=O)Cc1noc(-c2ccc3ncccc3c2)n1
20.8 | 90.9 |  | 29.1 |  |  | CC(=O)NCC(=O)N1[C@@H]2CC[C@H]1c1ccc(Nc3ncc(C(F)(F)F)c(NC4CCC4)n3)cc12
40.7 | 643 | 57.8 (≈ 128 µM) | 106 | 0.0395 | 0.0355 | CC(=O)Nc1ccc(C(=O)N2CCCCC2c2nc(N)ncc2-c2ccc(Cl)cc2)cc1 (stereo not given)
41.7 | 591 |  | 2.87 |  |  | Cc1ccc(S(=O)(=O)N2CCC(c3nnc(-c4cccnc4)o3)C2)cc1 (stereo not given)
21.1 | 70 | 52.5 (≈ 135 µM) | 36.9 |  |  | Cc1ccc2nc(C)c(C(=O)N3CCC(C(=O)Nc4ccncc4)CC3)cc2c1
≤ 4.74 | 61.5 |  |  |  |  | Cn1ccnc1C1CCN(C(=O)COCc2nc3cc(F)ccc3[nH]2)CC1
214 | 2150 | 57.9 (≈ 179 µM) | 0.605 |  |  | Cc1ccc(C)c(S(=O)(=O)N2CCCN(C3CCC3)CC2)c1
≤ 4.74 | 28.6 | 51.2 (≈ 183 µM) | 1.52 |  |  | O=C1CNC(=O)N1CCCN1CCc2sccc2C1
≤ 4.74 | ≤ 10.7 |  |  |  |  | Cc1cc(C(=O)N2CCS(=O)(=O)CC2)c(C)o1
28.6 | 95.3 |  | 0.848 |  |  | CCc1cc(-c2ccc(OC)c3ncccc23)nc(N2CCOCC2)n1
≤ 4.74 | ≤ 10.7 | 31.9 (≈ 133 µM) |  |  |  | O=C(O)c1cnn(-c2ccncc2)c1C(F)F
52.1 | 935 | 22.4 (≈ 75.6 µM) | 0.636 |  |  | Cc1nnc(NCCc2ccc3c(c2)OCO3)c(C#N)c1C
 |  | 44.6 (≈ 181 µM) |  |  |  | Cc1ccc(F)c(N(C#N)Cc2nnc(C)o2)c1
8.54 | 43.9 |  | 0.676 |  |  | CN(C)CC(C)(C)CNc1cn[nH]c(=O)c1Br
39.7 | 83.1 | 28.5 (≈ 140 µM) | 0.704 |  |  | Cc1cc(N(C)C)nc(-n2ccnc2)n1
54.2 | 908 | 41.6 (≈ 129 µM) | 0.539 |  |  | O[C@@H]1C[C@@H](c2nc(-c3ccccc3)no2)N(Cc2ccccc2)C1
22.2 | 50.7 |  | 1.41 |  |  | CCCC(=O)Nc1ccc(C(=O)N(C)C)cc1
18.6 | 506 | 50 (≈ 162 µM) | 1.49 |  |  | O=C(CCCc1cc(Cl)sc1Cl)N1CC[C@H](O)C1
≤ 4.74 | 595 | 46.4 (≈ 140 µM) | 3.82 |  |  | Cc1nn(-c2ccc(C(=O)O)cc2C#Cc2ccccc2)c(C)c1C
14 | 34.4 | 26 (≈ 128 µM) | 0.809 |  |  | C#CCNC(=O)c1ccc2c(c1)OCO2
26.7 | 109 | 58.6 (≈ 149 µM) | 0.963 |  |  | O=C1CCCN1c1ccc(CN2CCC(c3noc4cc(F)ccc34)CC2)cc1
85.1 | 367 | 27.9 (≈ 106 µM) | 0.636 |  |  | CSCc1c(C(=O)NC(C)C)oc2ccccc12
23.8 | 123 | 67.1 (≈ 181 µM) | 5.26 |  |  | Cc1cc(-c2cnn(CCNC(=O)c3sc(C)nc3C)c2C2CC2)on1
≤ 4.74 | 29.5 | 7.6 (≈ 18.7 µM) | 18.1 | 0.042 | 0.0241 | Nc1ncc(C(=O)NC2CN(C(=O)C3CC3)C2)c2ccc(-c3cccc(F)c3)nc12
≤ 4.74 | 27.5 | 54.9 (≈ 191 µM) | 0.91 |  |  | O=C1CCCN1C(=O)COc1cccc(-c2nnco2)c1
122 | 541 |  |  |  |  | Cc1ccc(S(=O)(=O)Nc2ccccc2-c2nc3ccccc3[nH]2)cc1

Structure (SMILES) | intrinsic clearance, human liver microsomes [mL/min/kg] | intrinsic clearance, rat liver microsomes [mL/min/kg] | aqueous solubility [µg/mL] | MDR1-MDCK efflux ratio | fraction unbound, human plasma | fraction unbound, rat plasma
N#Cc1cccc(-c2ccc(=O)n3c2[C@@H]2C[C@@H](CN(Cc4ccc(F)cc4)C2)C3)c1 | 218 | 1470 | 32.4 (≈ 81.2 µM) | 6.11 |  | 
